According to patent US9493506B2 (Enanta Pharmaceuticals, Inc., priority 2010, dated 2016):

Experiments:
Format in all cases: cell-based, hepatitis C virus (genotype 1a-H77)
[1] = system: HCV replicon with a D168V mutation in a 1a-H77 background; assay: transient replicon assay, D168V mutation in 1a-H77 background; conditions: Hepatitis C virus, read-out: EC50 in a transient replicon assay with a D168V mutation in a 1a-H77 background
Method: (§1) Replicon cell lines can be maintained in Dulbecco's modified Eagles medium (DMEM) containing 100 IU/ml penicillin, […] streptomycin (Invitrogen), […] G418 (Invitrogen) and 10% (v/v) fetal bovine serum (FBS). Replicon-containing cells can be seeded into 96 well plates at a density of 5000 cells per well in 100 μl DMEM containing 5% FBS. The next day, the compound can be initially diluted in dimethyl sulfoxide (DMSO) to generate a 200× stock of the inhibitor in a series of 8 half-log dilutions. The dilution series can then be diluted 100-fold in the medium containing 5% FBS. One hundred microliters of medium with the inhibitor can be added to each well of the overnight cell culture plate already containing 100 μl of DMEM with 5% FBS. In assays where the protein binding effect on inhibitor potency is assessed, the medium from the overnight cell culture plates can be replaced with 200 μl DMEM containing 40% human plasma (Innovative Research) plus 5% FBS as well as compound. The cells can be grown for 4 days in tissue culture incubators. The inhibitory effects of compounds against the replicons can be determined by measuring either the level of luciferase or HCV RNA. The luciferase assay can be conducted using a Luciferase Assay System kit (Promega) following the manufacturer's instructions. Briefly, the cell culture medium is removed and wells are washed with 200 μl of phosphate-buffered saline. To each well Passive Lysis buffer (Promega, Wis.) is added and the plates are incubated for 30 min with rocking to lyse the cells. Luciferin solution (50 μl, Promega) is added, and luciferase activity is measured with a Victor II luminometer (Perkin-Elmer). To determine HCV RNA levels, RNA extractions can be performed using the CellsDirect kit (Invitrogen), and the HCV RNA copy number can be measured using the SuperScript III Platinum One-Step qRT-PCR system (Invitrogen) and primers specific to the HCV 5′ nontranslated region. Cytotoxicity can be determined by the 3-[4,5-dimethylhiazol-2-yl]-2,5-diphenyltetrazolium bromide (MTT) colorimetric assay as follows. Replicon cells is plated in 96-well plates (4000 cells per well), the next day compound dilutions are added as in the activity assay, and the cells are grown in the presence of the inhibitors for 4 days. The MTT solution is diluted in DMEM containing 5% FBS and 60 μl of the solution is added to the cells. After 4 hrs, the cells are solubilized by the addition of 30 […]μl SDS (20% in 0.02 N HCl). The plates are incubated overnight and the optical density can be measured at 570 nm. To determine compounds' EC50 and TD50, luciferase, RNA inhibition and MTT data can be analyzed using the GraphPad Prism 4 software (equation: sigmoidal dose-response—variable slope).
(§2) The 1a-H77 replicon for transient assays further differs from the replicon in the stable cell line in that it contains NS2 through NS5B in the second cistron. The 1b-N strain replicon contains NS3 through NS5B in the second cistron, with adaptive mutations E1202G in NS3 and S2204I in NS5A. Mutagenesis can be performed using the Stratagene QuikChange XL II site-directed mutagenesis kit. Mutants' sequences can be confirmed, plasmids can be linearized with Xba I restriction enzyme and used as template for in vitro transcription reactions to make mutant replicon RNA for transient transfections. In vitro transcription can be performed with the T7 Megascript kit (Ambion).
(§3) Transient replicon transfections can be performed essentially as described by Mo et al. (Antimicrob Agents Chemother (2005) 49(10):4305-4314) with slight modifications. Fifteen micrograms of template RNA can be used to electroporate 3×10^6 cells in a 200 μl volume in a 0.2 cm cuvette. The cells used for transient transfections can be Huh7 cells obtained by curing replicon-containing cells with IFN (Mo et al., supra). Electroporation can be done with a Gene Pulser II (Bio-Rad, CA) at 480V and 25 μF, using two manual pulses. […]

[2] = system: HCV replicon with a R155K mutation in a 1a-H77 background; assay: transient replicon assay, R155K mutation in 1a-H77 background; conditions: Hepatitis C virus, read-out: EC50 in a transient replicon assay with a R155K mutation in a 1a-H77 background
Method: as §1, §2, §3

[3] = system: HCV replicon with a D168E mutation in a 1a-H77 background; assay: transient replicon assay, D168E mutation in 1a-H77 background; conditions: Hepatitis C virus, read-out: EC50 in a transient replicon assay with a D168E mutation in a 1a-H77 background
Method: as §1, §2, §3

SMILES	EC50 [1]	EC50 [2]	EC50 [3]
Cc1cnc(C(=O)N[C@H]2CCCCC/C=C\[C@@H]3C[C@@]3(C(=O)NS(=O)(=O)C3CC3)NC(=O)[C@@H]3C[C@@H](Oc4nc5ccccc5nc4C(F)(F)F)CN3C2=O)cn1 [Example 11, (2R,6S,13aS,14aR,16aS,Z)—N-(cyclopropylsulfonyl)-2-(3-(trifluoromethyl)quinoxalin-2-yloxy)-6-(5-methylpyrazine-2-carboxamido)-5,16-dioxo-1,2,3,5,6,7,8,9,10,11,13a,14,14a,15,16,16a-hexadecahydrocyclopropa[e]pyrrolo[1,2-a][1,4]diazacyclopentadecine-14a-carboxamide]	0.05 to 0.25 µM	0.01 to 0.025 µM	> 0.1 µM
Cn1ccc(C(=O)N[C@H]2CCCCC/C=C\[C@@H]3C[C@@]3(C(=O)NS(=O)(=O)C3CC3)NC(=O)[C@@H]3C[C@@H](Oc4nc5ccccc5nc4C(F)(F)F)CN3C2=O)n1 [Example 12]	0.25 to 1 µM	0.01 to 0.025 µM	0.05 to 0.1 µM
Cc1cc(C(=O)N[C@H]2CCCCC/C=C\[C@@H]3C[C@@]3(C(=O)NS(=O)(=O)C3CC3)NC(=O)[C@@H]3C[C@@H](Oc4nc5ccccc5nc4C(F)(F)F)CN3C2=O)[nH]n1 [Example 13]	0.25 to 1 µM	0.01 to 0.025 µM	> 0.1 µM
Cc1ccsc1C(=O)N[C@H]1CCCCC/C=C\[C@@H]2C[C@@]2(C(=O)NS(=O)(=O)C2CC2)NC(=O)[C@@H]2C[C@@H](Oc3nc4ccccc4nc3C(F)(F)F)CN2C1=O [Example 14]	0.025 to 0.05 µM	< 0.001 µM	0.003 to 0.02 µM
Cc1cc(C(=O)N[C@H]2CCCCC/C=C\[C@@H]3C[C@@]3(C(=O)NS(=O)(=O)C3(C)CC3)NC(=O)[C@@H]3C[C@@H](Oc4nc5ccccc5nc4C(F)(F)F)CN3C2=O)no1 [Example 17, 5-methyl-N-((2R,6S,13aS,14aR,16aS,Z)-14a-(1-methylcyclopropylsulfonylcarbamoyl)-5,16-dioxo-2-(3-(trifluoromethyl)quinoxalin-2-yloxy)-1,2,3,5,6,7,8,9,10,11,13a,14,14a,15,16,16a-hexadecahydrocyclopropa[e]pyrrolo[1,2-a][1,4]diazacyclopentadecin-6-yl)isoxazole-3-carboxamide]	0.025 to 0.05 µM	< 0.001 µM	0.003 to 0.02 µM
CC(C)[C@@H](C(=O)N[C@H]1CCCCC/C=C\[C@@H]2C[C@@]2(C(=O)NS(=O)(=O)C2CC2)NC(=O)[C@@H]2C[C@@H](Oc3nc4ccccc4nc3C(F)(F)F)CN2C1=O)N1CCCNC1=O [Example 19, (2R,6S,13aS,14aR,16aS,Z)—N-(cyclopropylsulfonyl)-6-((S)-3-methyl-2-(2-oxotetrahydropyrimidin-1(2H)-yl)butanamido)-5,16-dioxo-2-(3-(trifluoromethyl)quinoxalin-2-yloxy)-1,2,3,5,6,7,8,9,10,11,13a,14,14a,15,16,16a-hexadecahydrocyclopropa[e]pyrrolo[1,2-a][1,4]diazacyclopentadecine-14a-carboxamide]	> 1 µM	> 0.05 µM	> 0.1 µM
Cc1nc2ccc(F)cc2nc1O[C@@H]1C[C@H]2C(=O)N[C@]3(C(=O)NS(=O)(=O)C4CC4)C[C@H]3/C=C\CCCCC[C@H](NC(=O)OC(C)(C)C)C(=O)N2C1 [Example 20, tert-butyl (2R,6S,13aS,14aR,16aS,Z)-14a-(cyclopropylsulfonylcarbamoyl)-2-(7-fluoro-3-methylquinoxalin-2-yloxy)-5,16-dioxo-1,2,3,5,6,7,8,9,10,11,13a,14,14a,15,16,16a-hexadecahydrocyclopropa[e]pyrrolo[1,2-a][1,4]diazacyclopentadecin-6-ylcarbamate]	0.025 to 0.05 µM	< 0.001 µM	0.003 to 0.02 µM
